Laboratory results as given in ChEMBL document CHEMBL4800724 (2021).
Active and inactive are the calls of the source. The rule behind the calls is not given here.

Legend:
[1] = target: T1, Sigma non-opioid intracellular receptor 1 (Homo sapiens, UniProt Q99720); test: GPCRScan assay: inhibition of Sigma 1; set-up: radioligand conc. used [nm] 4.0 – 5.0, parental cells HEKT
[2] = target: Mitogen-activated protein kinase 14 (Homo sapiens, UniProt Q16539); test: NanoBRET (SGC Frankfurt) (MAPK14)
[3] = target: Ubiquitin carboxyl-terminal hydrolase isozyme L1 (Homo sapiens) (UniProt P09936); test: UCHL1 activity based protein profiling assay (ABPP)
[4] = target: 5-hydroxytryptamine receptor 1A (Homo sapiens) (UniProt P08908); conditions: Compound concentration 10.0 uM
[5] = target: 5-hydroxytryptamine receptor 1B (Homo sapiens) (UniProt P28222); conditions: Compound concentration 10.0 uM
[6] = target: 5-hydroxytryptamine receptor 1D (Homo sapiens) (UniProt P28221); conditions: Compound concentration 10.0 uM
[7] = target: 5-hydroxytryptamine receptor 1E (Homo sapiens) (UniProt P28566); conditions: Compound concentration 10.0 uM
[8] = target: 5-hydroxytryptamine receptor 2A (Homo sapiens) (UniProt P28223); conditions: Compound concentration 10.0 uM
[9] = target: 5-hydroxytryptamine receptor 2B (Homo sapiens) (UniProt P41595); conditions: Compound concentration 10.0 uM
[10] = target: 5-hydroxytryptamine receptor 2C (Homo sapiens) (UniProt P28335); conditions: Compound concentration 10.0 uM
[11] = target: 5-hydroxytryptamine receptor 3A (Homo sapiens) (UniProt P46098); conditions: Compound concentration 10.0 uM
[12] = target: 5-hydroxytryptamine receptor 5A (Homo sapiens) (UniProt P47898); conditions: Compound concentration 10.0 uM
[13] = target: 5-hydroxytryptamine receptor 6 (Homo sapiens) (UniProt P50406); conditions: Compound concentration 10.0 uM
[14] = target: 5-hydroxytryptamine receptor 7 (Homo sapiens) (UniProt P34969); conditions: Compound concentration 10.0 uM
[15] = target: D(2) dopamine receptor (Homo sapiens) (UniProt P14416); conditions: Compound concentration 10.0 uM
[16] = target: D(3) dopamine receptor (Homo sapiens) (UniProt P35462); conditions: Compound concentration 10.0 uM
[17] = target: D(4) dopamine receptor (Homo sapiens) (UniProt P21917); conditions: Compound concentration 10.0 uM
[18] = target: D(1B) dopamine receptor (Homo sapiens) (UniProt P21918); conditions: Compound concentration 10.0 uM
[19] = target: Sodium-dependent serotonin transporter (Homo sapiens) (UniProt P31645); conditions: Compound concentration 10.0 uM
[20] = target: Sodium-dependent noradrenaline transporter (Homo sapiens) (UniProt P23975); conditions: Compound concentration 10.0 uM
[21] = target: T2, Sodium-dependent dopamine transporter (Homo sapiens, UniProt Q01959); conditions: Compound concentration 10.0 uM
[22] = target: Mu-type opioid receptor (Homo sapiens) (UniProt P35372); conditions: Compound concentration 10.0 uM
[23] = target: Delta-type opioid receptor (Homo sapiens) (UniProt P41143); conditions: Compound concentration 10.0 uM
[24] = target: Kappa-type opioid receptor (Homo sapiens) (UniProt P41145); conditions: Compound concentration 10.0 uM
[25] = target: T3, GABA-A receptor; anion channel (Rattus norvegicus) (UniProt O09028+P15431+P18506+P18508+P19969+P20236+P23574+P23576+P28471+P28473+P30191+P62813+P63079+P63138+Q91ZM7+Q9ES14); conditions: Compound concentration 10.0 uM
[26] = target: Histamine H1 receptor (Homo sapiens) (UniProt P35367); conditions: Compound concentration 10.0 uM
[27] = target: Histamine H2 receptor (Homo sapiens) (UniProt P25021); conditions: Compound concentration 10.0 uM
[28] = target: Histamine H3 receptor (Homo sapiens) (UniProt Q9Y5N1); conditions: Compound concentration 10.0 uM
[29] = target: Histamine H4 receptor (Homo sapiens) (UniProt Q9H3N8); conditions: Compound concentration 10.0 uM
[30] = target: Alpha-1A adrenergic receptor (Homo sapiens) (UniProt P35348); conditions: Compound concentration 10.0 uM
[31] = target: Alpha-2B adrenergic receptor (Homo sapiens) (UniProt P18089); conditions: Compound concentration 10.0 uM
[32] = target: Alpha-2C adrenergic receptor (Homo sapiens) (UniProt P18825); conditions: Compound concentration 10.0 uM
[33] = target: Beta-1 adrenergic receptor (Homo sapiens) (UniProt P08588); conditions: Compound concentration 10.0 uM
[34] = target: Beta-2 adrenergic receptor (Homo sapiens) (UniProt P07550); conditions: Compound concentration 10.0 uM
[35] = target: Muscarinic acetylcholine receptor M1 (Homo sapiens) (UniProt P11229); conditions: Compound concentration 10.0 uM
[36] = target: Muscarinic acetylcholine receptor M2 (Homo sapiens) (UniProt P08172); conditions: Compound concentration 10.0 uM
[37] = target: Muscarinic acetylcholine receptor M3 (Homo sapiens) (UniProt P20309); conditions: Compound concentration 10.0 uM
[38] = target: Muscarinic acetylcholine receptor M4 (Homo sapiens) (UniProt P08173); conditions: Compound concentration 10.0 uM
[39] = target: Beta-3 adrenergic receptor (Homo sapiens) (UniProt P13945); conditions: Compound concentration 10.0 uM
[40] = target: T3, GABA-A receptor; anion channel (Rattus norvegicus); conditions: Compound concentration 10.0 uM; remark: listed apart in the source
Rattus norvegicus = species on record: Rattus norvegicus; conditions: Compound concentration 10.0 uM
[41] = target: Alpha-1D adrenergic receptor (Homo sapiens) (UniProt P25100); conditions: Compound concentration 10.0 uM
[42] = target: Sigma intracellular receptor 2 (Homo sapiens) (UniProt Q5BJF2); conditions: Compound concentration 10.0 uM
[43] = target: T1, Sigma non-opioid intracellular receptor 1; conditions: Compound concentration 10.0 uM
[44] = target: T2, Sodium-dependent dopamine transporter; test: GPCRScan assay: inhibition of DAT; set-up: radioligand conc. used [nm] 3.6 – 16.0, parental cells stable HEK
[45] = target: Alpha-2A adrenergic receptor (Homo sapiens, UniProt P08913); test: GPCRScan assay: inhibition of Alpha2A; set-up: radioligand conc. used [nm] 1.0 – 3.0, parental cells stable MDCK
[46] = target: Ubiquitin carboxyl-terminal hydrolase isozyme L1 (Homo sapiens, UniProt P09936); test: UCHL1 inhibition assay with Ub-Rho-morpholine as substrate
[47] = target: D(1A) dopamine receptor (Homo sapiens) (UniProt P21728); conditions: Compound concentration 10.0 uM
[48] = target: Alpha-1B adrenergic receptor (Homo sapiens) (UniProt P35368); conditions: Compound concentration 10.0 uM
[49] = target: Alpha-2A adrenergic receptor (Homo sapiens) (UniProt P08913); conditions: Compound concentration 10.0 uM
[50] = target: Muscarinic acetylcholine receptor M5 (Homo sapiens) (UniProt P08912); conditions: Compound concentration 10.0 uM

T1 sequence (Q99720 whole entry): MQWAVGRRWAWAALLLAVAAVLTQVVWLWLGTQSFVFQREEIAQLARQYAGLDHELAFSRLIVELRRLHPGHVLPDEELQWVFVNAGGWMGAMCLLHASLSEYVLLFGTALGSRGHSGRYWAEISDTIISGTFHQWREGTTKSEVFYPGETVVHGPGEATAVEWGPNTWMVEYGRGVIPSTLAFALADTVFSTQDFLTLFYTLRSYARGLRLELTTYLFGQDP
T2 sequence (Q01959 whole entry): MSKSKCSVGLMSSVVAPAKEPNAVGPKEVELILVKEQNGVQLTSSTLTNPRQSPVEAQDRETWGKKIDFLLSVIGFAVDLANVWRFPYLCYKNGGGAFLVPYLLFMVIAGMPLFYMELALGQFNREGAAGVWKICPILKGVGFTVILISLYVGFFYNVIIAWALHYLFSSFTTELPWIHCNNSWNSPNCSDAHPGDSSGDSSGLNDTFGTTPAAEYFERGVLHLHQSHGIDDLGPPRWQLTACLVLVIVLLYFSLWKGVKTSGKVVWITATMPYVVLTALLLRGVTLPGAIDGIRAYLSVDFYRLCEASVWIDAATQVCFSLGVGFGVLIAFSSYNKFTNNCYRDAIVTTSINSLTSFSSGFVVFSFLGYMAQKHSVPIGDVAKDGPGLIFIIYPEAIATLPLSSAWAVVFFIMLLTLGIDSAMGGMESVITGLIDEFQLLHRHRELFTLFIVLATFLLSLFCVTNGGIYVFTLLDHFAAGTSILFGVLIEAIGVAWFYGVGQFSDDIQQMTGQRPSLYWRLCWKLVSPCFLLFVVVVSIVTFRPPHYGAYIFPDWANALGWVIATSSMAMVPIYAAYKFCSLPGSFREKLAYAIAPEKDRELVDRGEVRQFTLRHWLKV
Sequence of Beta-2 adrenergic receptor (Homo sapiens) (P07550 whole entry, looked up): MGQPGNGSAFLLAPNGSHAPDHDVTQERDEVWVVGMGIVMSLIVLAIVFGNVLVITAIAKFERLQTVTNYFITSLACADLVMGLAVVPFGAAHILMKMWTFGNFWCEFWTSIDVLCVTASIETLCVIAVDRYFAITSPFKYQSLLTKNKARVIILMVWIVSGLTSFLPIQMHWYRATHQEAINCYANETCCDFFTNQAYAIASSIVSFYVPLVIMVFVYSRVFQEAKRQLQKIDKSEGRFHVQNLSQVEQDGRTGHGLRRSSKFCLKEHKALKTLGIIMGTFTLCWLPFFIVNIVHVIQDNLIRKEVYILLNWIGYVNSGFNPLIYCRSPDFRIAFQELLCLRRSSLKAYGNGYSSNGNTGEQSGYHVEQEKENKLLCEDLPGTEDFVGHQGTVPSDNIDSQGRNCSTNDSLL
Sequence of 5-hydroxytryptamine receptor 2C (Homo sapiens) (P28335 whole entry): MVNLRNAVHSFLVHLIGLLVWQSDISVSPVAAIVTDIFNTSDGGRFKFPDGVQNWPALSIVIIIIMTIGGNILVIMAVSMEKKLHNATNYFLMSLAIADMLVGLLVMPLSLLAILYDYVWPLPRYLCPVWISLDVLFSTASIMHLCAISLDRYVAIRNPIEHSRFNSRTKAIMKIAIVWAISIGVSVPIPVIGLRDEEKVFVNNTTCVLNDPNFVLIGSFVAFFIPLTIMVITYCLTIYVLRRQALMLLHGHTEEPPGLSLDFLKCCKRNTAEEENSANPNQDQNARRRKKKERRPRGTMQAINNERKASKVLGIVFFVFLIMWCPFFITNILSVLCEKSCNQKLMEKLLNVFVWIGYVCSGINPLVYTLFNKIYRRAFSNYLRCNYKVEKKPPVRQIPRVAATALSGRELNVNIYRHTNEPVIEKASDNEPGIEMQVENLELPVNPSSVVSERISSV
Sequence of Beta-1 adrenergic receptor (Homo sapiens) (P08588 whole entry, looked up): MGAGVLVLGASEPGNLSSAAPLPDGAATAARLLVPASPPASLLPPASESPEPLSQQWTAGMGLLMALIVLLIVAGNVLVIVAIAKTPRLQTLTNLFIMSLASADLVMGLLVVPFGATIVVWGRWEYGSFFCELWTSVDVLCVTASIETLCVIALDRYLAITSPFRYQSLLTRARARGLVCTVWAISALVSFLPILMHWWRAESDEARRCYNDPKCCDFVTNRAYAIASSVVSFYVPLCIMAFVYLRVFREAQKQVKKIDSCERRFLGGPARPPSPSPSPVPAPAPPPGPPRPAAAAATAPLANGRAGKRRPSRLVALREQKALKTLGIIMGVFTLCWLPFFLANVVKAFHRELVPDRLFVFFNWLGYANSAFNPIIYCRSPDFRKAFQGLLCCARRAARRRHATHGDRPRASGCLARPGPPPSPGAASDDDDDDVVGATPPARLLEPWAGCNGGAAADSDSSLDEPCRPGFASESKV
Sequence of Histamine H2 receptor (Homo sapiens) (P25021 whole entry): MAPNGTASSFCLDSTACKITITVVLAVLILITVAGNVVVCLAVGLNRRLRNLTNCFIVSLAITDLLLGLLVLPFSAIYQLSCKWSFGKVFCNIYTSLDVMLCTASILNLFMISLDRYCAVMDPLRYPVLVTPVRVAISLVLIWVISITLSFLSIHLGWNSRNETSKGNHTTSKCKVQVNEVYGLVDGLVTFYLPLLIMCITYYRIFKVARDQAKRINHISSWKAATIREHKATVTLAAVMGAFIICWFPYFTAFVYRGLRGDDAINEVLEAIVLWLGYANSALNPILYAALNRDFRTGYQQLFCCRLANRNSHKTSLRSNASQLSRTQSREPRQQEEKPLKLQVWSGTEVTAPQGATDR
Sequence of Alpha-2A adrenergic receptor (P08913 whole entry): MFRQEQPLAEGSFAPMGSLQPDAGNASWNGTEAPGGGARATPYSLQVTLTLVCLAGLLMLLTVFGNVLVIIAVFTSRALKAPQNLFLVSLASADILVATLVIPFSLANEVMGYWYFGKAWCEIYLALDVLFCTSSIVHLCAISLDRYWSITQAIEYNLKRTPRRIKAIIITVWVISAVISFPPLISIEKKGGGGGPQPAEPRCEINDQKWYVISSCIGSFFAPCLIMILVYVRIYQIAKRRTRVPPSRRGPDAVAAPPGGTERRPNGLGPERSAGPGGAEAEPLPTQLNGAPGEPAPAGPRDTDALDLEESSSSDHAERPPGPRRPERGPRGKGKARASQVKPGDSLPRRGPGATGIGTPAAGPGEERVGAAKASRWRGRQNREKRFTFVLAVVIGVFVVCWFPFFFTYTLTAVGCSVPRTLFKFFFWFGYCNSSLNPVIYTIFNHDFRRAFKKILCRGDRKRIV
Sequence of Muscarinic acetylcholine receptor M4 (Homo sapiens) (P08173 whole entry): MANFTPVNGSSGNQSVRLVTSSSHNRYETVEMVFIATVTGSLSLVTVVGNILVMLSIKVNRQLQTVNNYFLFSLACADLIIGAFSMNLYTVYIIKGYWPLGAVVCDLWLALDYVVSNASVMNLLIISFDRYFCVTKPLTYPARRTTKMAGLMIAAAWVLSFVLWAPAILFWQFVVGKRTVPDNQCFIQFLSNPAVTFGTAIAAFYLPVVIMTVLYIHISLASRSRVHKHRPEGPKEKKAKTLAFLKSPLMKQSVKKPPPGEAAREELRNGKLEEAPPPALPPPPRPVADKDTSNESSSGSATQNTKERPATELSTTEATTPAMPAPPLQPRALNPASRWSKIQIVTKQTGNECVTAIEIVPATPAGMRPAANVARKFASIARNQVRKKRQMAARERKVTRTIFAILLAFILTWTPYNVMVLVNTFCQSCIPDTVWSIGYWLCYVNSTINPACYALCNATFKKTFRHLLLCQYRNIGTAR
Sequence of Alpha-1A adrenergic receptor (Homo sapiens) (P35348 whole entry): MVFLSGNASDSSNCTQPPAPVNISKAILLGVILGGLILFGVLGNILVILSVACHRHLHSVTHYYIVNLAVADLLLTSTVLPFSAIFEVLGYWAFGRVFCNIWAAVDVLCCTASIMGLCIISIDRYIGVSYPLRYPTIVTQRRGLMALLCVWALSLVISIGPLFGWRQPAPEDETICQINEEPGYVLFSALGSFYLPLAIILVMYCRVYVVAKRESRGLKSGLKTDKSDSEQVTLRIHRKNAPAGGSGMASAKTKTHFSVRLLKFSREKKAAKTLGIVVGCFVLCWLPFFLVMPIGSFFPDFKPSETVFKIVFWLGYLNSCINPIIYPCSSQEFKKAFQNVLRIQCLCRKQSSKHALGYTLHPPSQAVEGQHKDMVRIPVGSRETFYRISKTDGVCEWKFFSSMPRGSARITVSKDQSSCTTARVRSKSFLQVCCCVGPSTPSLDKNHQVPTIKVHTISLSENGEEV
Sequence of 5-hydroxytryptamine receptor 1A (Homo sapiens) (P08908 whole entry): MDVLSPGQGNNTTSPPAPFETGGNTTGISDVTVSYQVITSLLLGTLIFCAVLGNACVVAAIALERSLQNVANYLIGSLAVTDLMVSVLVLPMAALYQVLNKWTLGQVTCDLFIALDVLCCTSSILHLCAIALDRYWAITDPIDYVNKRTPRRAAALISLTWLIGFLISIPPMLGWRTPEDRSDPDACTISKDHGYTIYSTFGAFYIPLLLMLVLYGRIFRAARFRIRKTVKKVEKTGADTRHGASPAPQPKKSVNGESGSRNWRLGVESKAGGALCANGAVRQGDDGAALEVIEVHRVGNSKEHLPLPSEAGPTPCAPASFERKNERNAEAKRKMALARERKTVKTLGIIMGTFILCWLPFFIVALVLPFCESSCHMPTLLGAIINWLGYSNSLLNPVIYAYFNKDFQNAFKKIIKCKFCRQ
Sequence of Alpha-2C adrenergic receptor (Homo sapiens) (P18825 whole entry): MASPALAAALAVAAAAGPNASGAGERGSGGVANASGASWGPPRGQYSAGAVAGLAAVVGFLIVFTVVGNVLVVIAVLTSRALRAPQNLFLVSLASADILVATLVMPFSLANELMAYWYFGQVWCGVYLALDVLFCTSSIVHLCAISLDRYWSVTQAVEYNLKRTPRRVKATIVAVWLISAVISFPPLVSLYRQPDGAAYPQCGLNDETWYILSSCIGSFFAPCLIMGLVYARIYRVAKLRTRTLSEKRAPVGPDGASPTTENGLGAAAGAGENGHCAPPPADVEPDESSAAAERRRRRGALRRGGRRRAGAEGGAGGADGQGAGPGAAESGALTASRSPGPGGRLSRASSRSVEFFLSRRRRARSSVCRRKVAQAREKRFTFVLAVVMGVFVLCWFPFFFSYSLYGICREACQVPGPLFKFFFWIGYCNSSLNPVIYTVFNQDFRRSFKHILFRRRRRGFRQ
Sequence of Alpha-2A adrenergic receptor (Homo sapiens) (P08913 whole entry): as the sequence (P08913 whole entry) above

N#CN1CC[C@H](C(=O)Nc2nc3c(s2)CN(C(=O)CN=[N+]=[N-])CC3)C1 [8RK64]
Ki ([1]; read-out: Ki): 3.43 µM
Ki ([1]; read-out: pKi (converted)): 3.39 µM
IC50 [2]: 0.32 µM (active)
Full inhibition [3]: 3 µM
inhibition [4]: 7.61%
inhibition [5]: 1.57%
inhibition [6]: -0.37%
inhibition [7]: 2.35%
inhibition [8]: 30%
inhibition [9]: 5.22%
inhibition [10]: 18.2%
inhibition [11]: 2.31%
inhibition [12]: 11.8%
inhibition [13]: 9.94%
inhibition [14]: -0.16%
inhibition [15]: 0.55%
inhibition [16]: -2.14%
inhibition [17]: 4.26%
inhibition [18]: 7.55%
inhibition [19]: 2.49%
inhibition [20]: 2.61%
inhibition [21]: -2.33%
inhibition [22]: 12.6%
inhibition [23]: 8.43%
inhibition [24]: 0.19%
inhibition [25]: -1.06%
inhibition [26]: 7.45%
inhibition [27]: 0.58%
inhibition [28]: -5.98%
inhibition [29]: 5.77%
inhibition [30]: 11.2%
inhibition [31]: -1.02%
inhibition [32]: 14.7%
inhibition [33]: -7.19%
inhibition [34]: -0.7%
inhibition [35]: 7.58%
inhibition [36]: -0.45%
inhibition [37]: -1.04%
inhibition [38]: 4.84%
inhibition [39]: -3.31%
inhibition [40]: -2.35%
inhibition (Rattus norvegicus): 21.9%
inhibition [41]: 12.2%
inhibition [42]: -1.19%
inhibition [43]: 69%

N#CN1CC[C@@H](C(=O)Nc2nc3c(s2)CN(C(=O)CN=[N+]=[N-])CC3)C1 [JYQ88]
Ki [44]: > 10 µM
pKi [44]: < 5
Ki [45]: > 10 µM
pKi [45]: < 5
IC50 [46]: 12.9 µM (not active)
inhibition [4]: 12.1%
inhibition [5]: 6.13%
inhibition [6]: 20.9%
inhibition [7]: 6.5%
inhibition [8]: 3.66%
inhibition [9]: 5.55%
inhibition [10]: 6.22%
inhibition [11]: 0.95%
inhibition [12]: 9.64%
inhibition [13]: 8.14%
inhibition [14]: -1.05%
inhibition [47]: 8.27%
inhibition [15]: 4.82%
inhibition [17]: 5.53%
inhibition [19]: 7.66%
inhibition [20]: 3.51%
inhibition [21]: 83%
inhibition [22]: 18.7%
inhibition [23]: 4.07%
inhibition [24]: 13.3%
inhibition [25]: 34.2%
inhibition [26]: 0.43%
inhibition [27]: 3.43%
inhibition [28]: -2.11%
inhibition [30]: 3.73%
inhibition [48]: -7.5%
inhibition [49]: 50.7%
inhibition [31]: 6.46%
inhibition [32]: 4.21%
inhibition [33]: 3.17%
inhibition [34]: -8.12%
inhibition [35]: 24.4%
inhibition [37]: -2.15%
inhibition [38]: -1.43%
inhibition [50]: 2.94%
inhibition [40]: 28.7%
inhibition (Rattus norvegicus): 5.64%
inhibition [41]: 0.34%
inhibition [43]: 6.56%
